Measurements from US20230135093A1, “TRIAZOLYL DERIVATIVES AS GABA A ALPHA5 PAM” (Hoffmann-La Roche Inc., priority 2020, published 2023).

Experiments:
h-GABA-A α5β3γ2 [1] = target: T1, h-GABA-A α5β3γ2 (Homo sapiens, UniProt P18507+P31644); test: [3H]flumazenil competition binding assay on membranes of HEK293 cells expressing GABAA receptors; settings: Table 1; displacement of [3H]-Flumazenil (0.5 nM), HEK293 cells expressing human receptors, means of two determinations
T1 construct: expressed in transfected cells; host or cells: Xenopus laevis oocytes, micro-injected with subunit RNA
In short: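 Membranes from HEK293 cells transiently expressing human α5β3γ2 were incubated 1 h at 4 °C in Krebs-tris pH 7.5 with 0.5 nM [3H]flumazenil and test compound. Nonspecific binding was set with 10^−5 M diazepam. Bound radioactivity was filtered and counted. Ki is the mean of two determinations.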

h-GABA-A α5β3γ2 [2] = target: T1, h-GABA-A α5β3γ2; test: Two-electrode voltage clamp electrophysiology in Xenopus oocytes expressing GABAA receptors (modulation of GABA EC20 current); assay type: cell-based; settings: Table 1; for Efficacy (GABA) %: % modulation of GABA EC20 = 100*(Fold increase-1); for Fold increase h-GABA-A α5β3γ2 oocyte: Xenopus oocytes, GABA EC20, test compound at approximatively 30 fold its Ki
In short: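 Oocytes injected with α5β3γ2 subunit RNA, recorded 3-5 days later by two-electrode clamp at −80 mV, room temperature, pH 7.4. The compound, at ~30-fold its Ki, was co-applied during a second GABA EC20 pulse. Efficacy was the extremum of the point-by-point second/first current ratio, given as % modulation (100×(fold−1)); n≥3 oocytes.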

Structure (SMILES)	Ki (h-GABA-A α5β3γ2 [1]) [nM]	Efficacy (GABA) % (h-GABA-A α5β3γ2 [2]) [%]	Fold increase h-GABA-A α5β3γ2 oocyte (h-GABA-A α5β3γ2 [2])
Cn1nnc(-c2ccc(C(F)(F)F)cc2F)c1Cn1ncc(N2CC(Oc3cnccn3)C2)cc1=O [Example 89, 2-[[5-[2-fluoro-4-(trifluoromethyl)phenyl]-3-methyl-triazol-4-yl]methyl]-5-(3-pyrazin-2-yloxyazetidin-1-yl)pyridazin-3-one]	9.3	76	1.76
CCn1nnc(-c2ccc(Cl)cc2F)c1Cn1ncc(N2CCN(C(C)C)[C@@H](C)C2)cc1=O [Example 92, 2-[[5-(4-chloro-2-fluoro-phenyl)-3-ethyl-triazol-4-yl]methyl]-5-[(3S)-4-isopropyl-3-methyl-piperazin-1-yl]pyridazin-3-one]	5.6	159	2.59
Cn1nnc(-c2ccc(C(F)(F)F)cc2F)c1Cn1ncc(N2CC(Oc3ccc(Cl)nc3)C2)cc1=O [Example 93, 5-[3-[(6-chloro-3-pyridyl)oxy]azetidin-1-yl]-2-[[5-[2-fluoro-4-(trifluoromethyl)phenyl]-3-methyl-triazol-4-yl]methyl]pyridazin-3-one]	9.4	79	1.79
CC(C)N1CCN(c2cnn(Cc3c(-c4ccc(C(F)(F)F)cc4F)nnn3C)c(=O)c2)C[C@@H]1C [Example 94, 2-[[5-[2-fluoro-4-(trifluoromethyl)phenyl]-3-methyl-triazol-4-yl]methyl]-5-[(3S)-4-isopropyl-3-methyl-piperazin-1-yl]pyridazin-3-one]	10.4	127	2.27
Cn1nnc(-c2ccc(Cl)cc2F)c1Cn1ncc(N2CC3(CCCCO3)C2)cc1=O [Example 95, 2-[[5-(4-chloro-2-fluoro-phenyl)-3-methyl-triazol-4-yl]methyl]-5-(5-oxa-2-azaspiro[3.5]nonan-2-yl)pyridazin-3-one]	11.1	58	1.58
Cn1nnc(-c2ccc(Cl)cc2F)c1Cn1ncc(N2CC(OC(C)(C)C)C2)cc1=O [Example 96, 5-(3-tert-butoxyazetidin-1-yl)-2-[[5-(4-chloro-2-fluoro-phenyl)-3-methyl-triazol-4-yl]methyl]pyridazin-3-one]	20.4	54	1.54
CCn1nnc(-c2ccc(Cl)cc2F)c1Cn1ncc(N2CC(OC(C)(C)C)C2)cc1=O [Example 97, 5-(3-tert-butoxyazetidin-1-yl)-2-[[5-(4-chloro-2-fluoro-phenyl)-3-ethyl-triazol-4-yl]methyl]pyridazin-3-one]	45.1	115	2.15
Cc1nccc(OC2CN(c3cnn(Cc4c(-c5ccc(Cl)cc5F)nnn4C)c(=O)c3)C2)n1 [Example 99, 2-[[5-(4-chloro-2-fluoro-phenyl)-3-methyl-triazol-4-yl]methyl]-5-[3-(2-methylpyrimidin-4-yl)oxyazetidin-1-yl]pyridazin-3-one]	4.6	86	1.86
CCOc1ccc(-c2cnn(Cc3c(-c4ccc(Cl)cc4F)nnn3C)c(=O)c2)cn1 [Example 103, 2-((5-(4-chloro-2-fluoro-phenyl)-3-methyl-triazol-4-yl)methyl)-5-(6-ethoxy-3-pyridyl)pyridazin-3-one]	10.4	106	2.06
COc1ncc(-c2cnn(Cc3c(-c4ccc(Cl)cc4F)nnn3C)c(=O)c2)cc1C [Example 104, 2-((5-(4-chloro-2-fluoro-phenyl)-3-methyl-triazol-4-yl)methyl)-5-(6-methoxy-5-methyl-3-pyridyl)pyridazin-3-one]	11.8	158	2.58
CCn1nnc(-c2ccc(Cl)cc2F)c1Cn1ncc(-c2cnn(C3CC3)c2)cc1=O [Example 105, 2-((4-(4-chloro-2-fluorophenyl)-1-ethyl-1H-1,2,3-triazol-5-yl)methyl)-5-(1-cyclopropyl-1H-pyrazol-4-yl)pyridazin-3(2H)-one]	17.2	111	2.11
Cn1nnc(-c2ccc(Cl)cc2F)c1Cn1ncc(-c2cnn(CC(F)F)c2)cc1=O [Example 106, 2-((5-(4-chloro-2-fluoro-phenyl)-3-methyl-triazol-4-yl)methyl)-5-(1-(2,2-difluoro-ethyl)pyrazol-4-yl)pyridazin-3-one]	11.4	72	1.72
Cn1nnc(-c2ccc(Cl)cc2F)c1Cn1ncc(-c2cccc(C#N)n2)cc1=O [Example 107, 6-(1-((5-(4-chloro-2-fluoro-phenyl)-3-methyl-triazol-4-yl)methyl)-6-oxo-pyridazin-4-yl)pyridine-2-carbonitrile]	9	234	3.34
COc1cc(-c2cnn(Cc3c(-c4ccc(Cl)cc4F)nnn3C)c(=O)c2)cnc1Cl [Example 108, 2-((5-(4-chloro-2-fluoro-phenyl)-3-methyl-triazol-4-yl)methyl)-5-(6-chloro-5-metlioxy-3-pyridyl)pyridazin-3-one]	16.8	46	1.46
C[C@@H]1CCCN1c1cnn(Cc2c(-c3ccc(Cl)nc3)nnn2C)c(=O)c1 [Example 109, 2-[[5-(6-chloro-3-pyridyl)-3-methyl-triazol-4-yl]methyl]-5-[(2R)-2-methylpyrrolidin-1-yl]pyridazin-3-one]	1.1	75	1.75
CCn1nnc(-c2ccc(Cl)cc2F)c1Cn1ncc(-c2cnc(OC)c(Cl)c2)cc1=O [Example 110, 2-((4-(4-chloro-2-fluorophenyl)-1-ethyl-1H-1,2,3-triazol-5-yl)methyl)-5-(5-chloro-6-methoxypyridin-3-yl)pyridazin-3(2H)-one]	8.8	139	2.39

Now from value to compound:

Ki (h-GABA-A α5β3γ2 [1]) [nM]	Efficacy (GABA) % (h-GABA-A α5β3γ2 [2]) [%]	Fold increase h-GABA-A α5β3γ2 oocyte (h-GABA-A α5β3γ2 [2])	Structure (SMILES)
12.5	115	2.15	CCn1nnc(-c2ccc(Cl)cc2F)c1Cn1ncc(N2CC(OCC(F)(F)F)C2)cc1=O [Example 87, 2-[[5-(4-chloro-2-fluoro-phenyl)-3-ethyl-triazol-4-yl]methyl]-5-[3-(2,2,2-trifluoro-ethoxy)azetidin-1-yl]pyridazin-3-one]
7	126	2.26	CCn1nnc(-c2ccc(Cl)cc2F)c1Cn1ncc(N2CC(OC(F)F)C2)cc1=O [Example 88, 2-[[5-(4-chloro-2-fluoro-phenyl)-3-ethyl-triazol-4-yl]methyl]-5-[3-(difluoromethoxy)azetidin-1-yl]pyridazin-3-one]
19.4	96	1.96	CCn1nnc(-c2ccc(Cl)cc2F)c1Cn1ncc(N2CC(OC(C)C)C2)cc1=O [Example 90, 2-[[5-(4-chloro-2-fluoro-phenyl)-3-ethyl-triazol-4-yl]methyl]-5-(3-isopropoxyazetidin-1-yl)pyridazin-3-one]
18.2	128	2.28	CCOC1CN(c2cnn(Cc3c(-c4ccc(Cl)cc4F)nnn3CC)c(=O)c2)C1 [Example 91, 2-[[5-(4-chloro-2-fluoro-phenyl)-3-ethyl-triazol-4-yl]methyl]-5-(3-ethoxyazetidin-1-yl)pyridazin-3-one]
8	58	1.58	Cn1nnc(-c2ccc(Cl)cc2F)c1Cn1ncc(N2CC(Oc3cncc(C(F)(F)F)n3)C2)cc1=O [Example 98, 2-[[5-(4-chloro-2-fluoro-phenyl)-3-methyl-triazol-4-yl]methyl]-5-[3-[6-(trifluoro-methyl)pyrazin-2-yl]oxyazetidin-1-yl]pyridazin-3-one]
15.9	79	1.79	Cn1nnc(-c2ccc(Cl)cc2F)c1Cn1ncc(N2CC(Oc3ccnc(C(F)(F)F)n3)C2)cc1=O [Example 100, 2-[[5-(4-chloro-2-fluoro-phenyl)-3-methyl-triazol-4-yl]methyl]-5-[3-[2-(trifluoromethyl)pyrimidin-4-yl]oxyazetidin-1-yl]pyridazin-3-one]
9.2	126	2.26	CCn1nnc(-c2ccc(Cl)cc2F)c1Cn1ncc(N2CC(Oc3ccc(Cl)nc3)C2)cc1=O [Example 101, 2-[[5-(4-chloro-2-fluoro-phenyl)-3-ethyl-triazol-4-yl]methyl]-5-[3-[(6-chloro-3-pyridyl)oxy]azetidin-1-yl]pyridazin-3-one]
20.2	164	2.64	CCn1nnc(-c2ccc(Cl)cc2F)c1Cn1ncc(N2CC(Oc3cccnn3)C2)cc1=O [Example 102, 2-[[5-(4-chloro-2-fluoro-phenyl)-3-ethyl-triazol-4-yl]methyl]-5-(3-pyridazin-3-yloxyazetidin-1-yl)pyridazin-3-one]
